PMC8648761, “Reductive inactivation of the hemiaminal pharmacophore for resistance against tetrahydroisoquinoline antibiotics” (Nature Communications, 2021)

How the values were obtained:
SDR-Cs = target: T1, SDR-Cs (Chlorella sorokiniana, UniProt A0A2P6TRY4); test: HPLC of reduction to […]; format: biochemical; settings: 290 uM ET-743, 1 mM NADPH, Tris-HCl pH 8.0, 30 C, 8 h
T1 construct: gene C2E21_4667; recombinant in E. coli BL21(DE3), His-tagged

homO1a = target: T2, homO1a (Streptomyces lavendulae, UniProt A0A895ZRD1); test: HPLC and MS of reduction to […]; format: biochemical; settings: […] ET-[…] NADPH, Tris-HCl pH […] C, […] h
T2 sequence (A0A895ZRD1 1-325): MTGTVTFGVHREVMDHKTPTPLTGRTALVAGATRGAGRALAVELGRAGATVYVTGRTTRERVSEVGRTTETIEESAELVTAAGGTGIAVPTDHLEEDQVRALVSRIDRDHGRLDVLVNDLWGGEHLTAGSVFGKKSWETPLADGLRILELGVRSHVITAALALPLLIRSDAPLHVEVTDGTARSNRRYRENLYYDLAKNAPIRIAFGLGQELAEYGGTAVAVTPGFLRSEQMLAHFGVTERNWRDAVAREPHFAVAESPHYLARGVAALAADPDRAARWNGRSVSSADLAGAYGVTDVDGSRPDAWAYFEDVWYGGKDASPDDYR

SDR-Pb = target: T3, SDR-Pb (Paenibacillus rhizosphaerae, UniProt A0A1R1EZ79); test: HPLC of reduction to […]; format: biochemical; settings: 290 uM ET-743, 1 mM NADPH, Tris-HCl pH 8.0, 30 C, 8 h
T3 construct: gene BK138_00365; recombinant in E. coli BL21(DE3), His-tagged
T3 sequence (A0A1R1EZ79 entry or part of it): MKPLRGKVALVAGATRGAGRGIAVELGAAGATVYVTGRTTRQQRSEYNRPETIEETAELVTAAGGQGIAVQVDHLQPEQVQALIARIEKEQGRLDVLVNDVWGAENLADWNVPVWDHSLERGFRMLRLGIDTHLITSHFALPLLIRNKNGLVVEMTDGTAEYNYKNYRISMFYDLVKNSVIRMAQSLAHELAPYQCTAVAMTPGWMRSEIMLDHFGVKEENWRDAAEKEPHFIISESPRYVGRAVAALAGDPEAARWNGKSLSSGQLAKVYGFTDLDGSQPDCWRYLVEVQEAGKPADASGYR

SfmO1 = SfmO1 (Streptomyces lavendulae, UniProt B0CN12); test: HPLC and MS of reduction to […]; format: biochemical; settings: 290 uM ET-743, 1 mM NADPH, Tris-HCl pH 8.0, 30 C, 8 h
SfmO1, sequence (B0CN12 entry or part of it): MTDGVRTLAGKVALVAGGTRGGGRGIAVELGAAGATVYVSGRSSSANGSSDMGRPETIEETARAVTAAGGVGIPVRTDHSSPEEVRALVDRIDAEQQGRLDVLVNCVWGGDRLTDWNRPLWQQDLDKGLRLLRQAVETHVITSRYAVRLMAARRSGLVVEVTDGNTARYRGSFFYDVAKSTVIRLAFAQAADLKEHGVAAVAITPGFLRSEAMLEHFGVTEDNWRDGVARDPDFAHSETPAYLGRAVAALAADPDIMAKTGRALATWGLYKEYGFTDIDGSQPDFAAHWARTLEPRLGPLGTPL

NapW [1] = target: T4, NapW (Streptomyces lusitanus, UniProt S4TKM8); test: HPLC and MS of reduction to […]; format: biochemical; settings: 290 uM ET-743, 1 mM NADPH, Tris-HCl pH 8.0, 30 C, 8 h
T4 construct: recombinant in E. coli BL21(DE3), His-tagged, Ni-NTA (pET-28a or pET-37b)
T4 sequence (S4TKM8 entry or part of it): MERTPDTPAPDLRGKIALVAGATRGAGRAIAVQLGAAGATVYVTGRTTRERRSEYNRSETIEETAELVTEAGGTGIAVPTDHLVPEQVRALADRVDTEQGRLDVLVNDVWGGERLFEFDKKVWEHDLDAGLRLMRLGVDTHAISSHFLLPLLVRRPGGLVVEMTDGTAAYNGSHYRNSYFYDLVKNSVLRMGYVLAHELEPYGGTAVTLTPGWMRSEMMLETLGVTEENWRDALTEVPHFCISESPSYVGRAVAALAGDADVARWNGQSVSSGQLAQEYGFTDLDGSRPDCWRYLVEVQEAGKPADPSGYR

[2] = system: T5, SDR-Rm (Rhizobium mesoamericanum); test: HPLC of reduction to […]; format: biochemical; settings: […] ET-[…] NADPH, Tris-HCl pH […] C, […] h
T5 construct: recombinant in E. coli BL21(DE3), His-tagged
T5 sequence (Z9SGJ4VC86 1-304): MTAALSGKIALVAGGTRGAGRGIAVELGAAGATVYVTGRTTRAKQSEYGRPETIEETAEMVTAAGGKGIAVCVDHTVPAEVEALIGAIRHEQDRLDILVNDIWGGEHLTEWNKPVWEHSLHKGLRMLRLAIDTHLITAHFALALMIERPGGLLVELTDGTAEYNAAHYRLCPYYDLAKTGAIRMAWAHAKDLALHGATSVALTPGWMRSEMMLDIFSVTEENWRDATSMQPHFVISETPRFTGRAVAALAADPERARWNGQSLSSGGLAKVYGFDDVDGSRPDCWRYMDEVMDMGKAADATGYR

homO1b = target: T6, homO1b (Streptomyces lavendulae, UniProt A0A896A5A8); test: HPLC and MS of reduction to […]; format: biochemical; settings: […] ET-[…] NADPH, Tris-HCl pH […] C, […] h
T6 sequence (A0A896A5A8 1-308): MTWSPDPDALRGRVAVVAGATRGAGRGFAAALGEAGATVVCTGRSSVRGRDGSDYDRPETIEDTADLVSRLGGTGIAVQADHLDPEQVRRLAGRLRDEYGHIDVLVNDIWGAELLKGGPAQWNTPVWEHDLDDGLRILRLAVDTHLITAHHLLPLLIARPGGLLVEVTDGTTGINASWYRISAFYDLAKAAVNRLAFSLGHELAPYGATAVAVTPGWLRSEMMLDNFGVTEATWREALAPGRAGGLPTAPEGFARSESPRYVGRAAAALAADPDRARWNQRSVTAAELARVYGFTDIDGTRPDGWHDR

homW = target: T7, homW (Streptomyces lusitanus, UniProt A0A896A0X3); test: HPLC and MS of reduction to […]; format: biochemical; settings: […] ET-[…] NADPH, Tris-HCl pH […] C, […] h
T7 sequence (A0A896A0X3 1-304): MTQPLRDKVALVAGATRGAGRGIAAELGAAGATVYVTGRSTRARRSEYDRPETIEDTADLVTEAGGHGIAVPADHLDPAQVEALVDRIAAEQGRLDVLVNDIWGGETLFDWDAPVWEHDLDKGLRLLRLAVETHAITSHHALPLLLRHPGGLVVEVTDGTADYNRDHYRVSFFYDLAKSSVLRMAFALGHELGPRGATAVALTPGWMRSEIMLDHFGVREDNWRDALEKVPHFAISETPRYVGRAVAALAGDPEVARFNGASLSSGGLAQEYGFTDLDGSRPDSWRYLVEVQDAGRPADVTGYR

SDR-Mb = target: T8, SDR-Mb (Myxococcales bacterium, UniProt A0A1M3NHK2); test: HPLC of reduction to […]; format: biochemical; settings: […] ET-[…] NADPH, Tris-HCl pH […] C, […] h
T8 construct: recombinant in E. coli BL21(DE3), His-tagged
T8 sequence (A0A1M3NHK2 1-336): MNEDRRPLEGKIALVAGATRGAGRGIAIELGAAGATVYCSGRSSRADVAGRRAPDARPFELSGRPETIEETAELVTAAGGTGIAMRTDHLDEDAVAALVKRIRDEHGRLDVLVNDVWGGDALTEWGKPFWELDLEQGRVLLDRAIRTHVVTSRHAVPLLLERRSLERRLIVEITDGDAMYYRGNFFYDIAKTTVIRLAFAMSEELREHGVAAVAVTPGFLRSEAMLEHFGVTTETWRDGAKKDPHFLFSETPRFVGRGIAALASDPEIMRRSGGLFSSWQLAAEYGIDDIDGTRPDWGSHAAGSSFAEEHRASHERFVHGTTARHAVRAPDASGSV

SfmC = target: T9, SfmC (Streptomyces lavendulae, UniProt B0CN27); test: MS of dual Pictet-Spengler product […]; format: biochemical; settings: 1 mM substrate, 0.5 mM myristoyl-Ala-glycinaldehyde, 1 mM ATP, MgCl2, MnCl2, NADH, HEPES pH 7.0, 30 C, 2 h
T9 construct: NRPS
T9 sequence (B0CN27 entry or part of it): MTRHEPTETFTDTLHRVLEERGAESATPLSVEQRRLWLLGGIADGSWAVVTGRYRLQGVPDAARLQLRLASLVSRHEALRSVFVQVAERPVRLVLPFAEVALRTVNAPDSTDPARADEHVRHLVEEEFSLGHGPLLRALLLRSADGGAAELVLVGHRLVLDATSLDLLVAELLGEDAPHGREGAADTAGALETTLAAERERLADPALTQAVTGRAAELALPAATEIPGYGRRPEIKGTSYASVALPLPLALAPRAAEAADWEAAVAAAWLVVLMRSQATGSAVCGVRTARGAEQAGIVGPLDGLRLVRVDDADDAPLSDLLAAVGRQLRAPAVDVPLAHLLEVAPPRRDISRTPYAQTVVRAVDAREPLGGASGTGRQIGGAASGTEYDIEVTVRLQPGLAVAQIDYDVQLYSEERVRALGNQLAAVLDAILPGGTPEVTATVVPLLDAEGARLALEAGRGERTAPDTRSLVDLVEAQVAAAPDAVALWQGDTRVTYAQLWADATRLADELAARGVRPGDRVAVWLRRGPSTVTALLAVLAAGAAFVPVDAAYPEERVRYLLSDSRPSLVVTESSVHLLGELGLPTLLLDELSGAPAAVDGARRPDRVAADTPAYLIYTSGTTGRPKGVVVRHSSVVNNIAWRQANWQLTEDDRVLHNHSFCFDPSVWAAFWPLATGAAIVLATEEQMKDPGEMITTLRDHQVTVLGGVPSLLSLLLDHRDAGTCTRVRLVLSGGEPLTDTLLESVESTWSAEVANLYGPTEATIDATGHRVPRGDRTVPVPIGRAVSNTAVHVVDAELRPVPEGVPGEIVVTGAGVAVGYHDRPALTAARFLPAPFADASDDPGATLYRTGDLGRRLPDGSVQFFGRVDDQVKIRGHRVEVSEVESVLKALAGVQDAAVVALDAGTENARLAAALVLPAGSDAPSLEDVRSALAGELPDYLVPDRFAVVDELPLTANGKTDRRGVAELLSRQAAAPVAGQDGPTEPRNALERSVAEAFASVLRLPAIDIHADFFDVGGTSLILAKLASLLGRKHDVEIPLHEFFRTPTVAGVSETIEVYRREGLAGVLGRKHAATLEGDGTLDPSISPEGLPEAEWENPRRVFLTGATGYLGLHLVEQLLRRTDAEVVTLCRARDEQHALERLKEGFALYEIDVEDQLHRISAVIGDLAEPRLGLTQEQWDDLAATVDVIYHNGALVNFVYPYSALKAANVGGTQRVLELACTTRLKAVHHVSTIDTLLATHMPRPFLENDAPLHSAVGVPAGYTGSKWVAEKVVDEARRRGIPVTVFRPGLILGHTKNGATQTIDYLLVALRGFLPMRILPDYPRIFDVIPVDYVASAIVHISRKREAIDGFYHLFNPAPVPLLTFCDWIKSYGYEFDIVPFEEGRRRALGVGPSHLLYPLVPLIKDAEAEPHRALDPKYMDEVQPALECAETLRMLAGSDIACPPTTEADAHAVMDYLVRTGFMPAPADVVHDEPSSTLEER

NapW [3] = target: T4, NapW; test: X-ray crystal structure (co-crystallisation); format: binding; settings: co-crystallised with 5 mM NADPH; modelled as NADP+; Rossmann fold site

T1 sequence (A0A2P6TRY4 entry or part of it): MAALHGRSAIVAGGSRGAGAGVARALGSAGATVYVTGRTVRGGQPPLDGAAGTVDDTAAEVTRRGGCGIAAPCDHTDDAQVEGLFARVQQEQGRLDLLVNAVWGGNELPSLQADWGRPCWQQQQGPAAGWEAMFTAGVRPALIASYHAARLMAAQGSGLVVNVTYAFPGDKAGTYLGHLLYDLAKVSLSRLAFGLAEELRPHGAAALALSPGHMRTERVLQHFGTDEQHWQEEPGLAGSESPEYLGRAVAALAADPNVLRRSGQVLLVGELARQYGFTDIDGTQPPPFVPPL

SMILES: COc1cc2c(cc1O)CCN[C@]21CS[C@@H]2c3c(OC(C)=O)c(C)c4c(c3[C@H](COC1=O)N1[C@@H]2[C@H]2c3c(cc(C)c(OC)c3O)C[C@@H]([C@@H]1O)N2C)OCO4 [compound 7, ET-743]
- HPLC of reduction to 8 (SDR-Cs): most proteins can catalyze reductive reaction of THIQ compounds except that SDR-Li and SDR-Ss
- HPLC and MS of reduction to 8 (homO1a): each of the five SDRs originated from NDM or SFM-A producer could effectively catalyze
- HPLC of reduction to 8 (SDR-Pb): most proteins can catalyze reductive reaction of THIQ compounds except that SDR-Li and SDR-Ss
- HPLC and MS of reduction to 8 (SfmO1): each of the five SDRs originated from NDM or SFM-A producer could effectively catalyze
- HPLC and MS of reduction to 8 (NapW [1]): each of the five SDRs originated from NDM or SFM-A producer could effectively catalyze
- HPLC of reduction to 8 [2]: most proteins can catalyze reductive reaction of THIQ compounds except that SDR-Li and SDR-Ss
- HPLC and MS of reduction to 8 (homO1b): each of the five SDRs originated from NDM or SFM-A producer could effectively catalyze
- HPLC and MS of reduction to 8 (homW): each of the five SDRs originated from NDM or SFM-A producer could effectively catalyze
- HPLC of reduction to 8 (SDR-Mb): most proteins can catalyze reductive reaction of THIQ compounds except that SDR-Li and SDR-Ss

SMILES: COc1c(C)cc(C[C@H](N)C(=O)O)cc1O [3-OH-5-Me-O-Me-Tyr]
- MS of dual Pictet-Spengler product 16 (SfmC): Dual Pictet-Spengler reactions catalyzed SfmC

SMILES: NC(=O)c1ccc[n+]([C@@H]2O[C@H](COP(=O)(O)OP(=O)(O)OC[C@H]3O[C@@H](n4cnc5c(N)ncnc54)[C@H](OP(=O)(O)O)[C@@H]3O)[C@@H](O)[C@H]2O)c1 [NADP^+]
- X-ray crystal structure (co-crystallisation) (NapW [3]): We further obtained the structure of NapW·NADP^+ binary complex by co-crystallizing NapW, NADP(H)
